Assay type in all cases: binding
Assay [1] concerns the target T1, MLKL (Homo sapiens, UniProt Q8NB16, D107A/E111A).
T1 construct: full-length hMLKL(2–471)
T1 sequence (Q8NB16 2-471 D107A/E111A): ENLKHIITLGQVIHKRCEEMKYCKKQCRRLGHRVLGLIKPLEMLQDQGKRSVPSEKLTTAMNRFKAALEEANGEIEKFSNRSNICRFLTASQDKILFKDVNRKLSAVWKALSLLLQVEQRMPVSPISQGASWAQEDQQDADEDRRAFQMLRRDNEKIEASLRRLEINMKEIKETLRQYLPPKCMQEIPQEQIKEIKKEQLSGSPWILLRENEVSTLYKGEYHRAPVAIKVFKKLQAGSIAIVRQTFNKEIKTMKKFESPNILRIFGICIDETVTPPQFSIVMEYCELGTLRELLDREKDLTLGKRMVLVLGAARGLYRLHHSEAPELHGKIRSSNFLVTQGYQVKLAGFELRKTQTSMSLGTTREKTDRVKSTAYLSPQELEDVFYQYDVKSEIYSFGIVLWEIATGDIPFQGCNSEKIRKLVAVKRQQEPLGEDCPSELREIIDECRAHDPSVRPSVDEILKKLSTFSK
The assay is described as follows: thermal shift assay with ATP titration.

Assay [2] has as its target T2, MLKL (Homo sapiens, UniProt Q8NB16, E258K).
T2 construct: full-length hMLKL(2–471)
T2 sequence (Q8NB16 2-471 E258K): T1 sequence (Q8NB16 2-471 D107A/E111A) with A106D, A110E, E257K
The assay is described as follows: thermal shift assay with ATP titration.

Assay [3] has as its target T3, MLKL (Homo sapiens, UniProt Q8NB16, K157A).
T3 construct: full-length hMLKL(2–471)
T3 sequence (Q8NB16 2-471 K157A): T1 sequence (Q8NB16 2-471 D107A/E111A) with A106D, A110E, K156A
The experiment in a line: thermal shift assay with ATP titration.

Assay [4] addresses T4, MLKL (Homo sapiens, UniProt Q8NB16, G330E).
T4 construct: full-length hMLKL(2–471)
T4 sequence (Q8NB16 2-471 G330E): T1 sequence (Q8NB16 2-471 D107A/E111A) with A106D, A110E, G329E
The assay is described as follows: thermal shift assay with ATP titration.

For assay [5], the target named is T5, MLKL (Homo sapiens, UniProt Q8NB16, E351K).
T5 construct: full-length hMLKL(2–471)
T5 sequence (Q8NB16 2-471 E351K): T1 sequence (Q8NB16 2-471 D107A/E111A) with A106D, A110E, E350K
The experiment in a line: thermal shift assay with ATP titration; HDX-MS protection around the ATP pocket.

The target of assay [6] is T6, MLKL (Homo sapiens, UniProt Q8NB16).
T6 construct: full-length hMLKL(2–471)
T6 sequence (Q8NB16 2-471): T1 sequence (Q8NB16 2-471 D107A/E111A) with A106D, A110E
The assay is described as follows: thermal shift assay (SYPRO Orange) with ATP titration, no divalent cations; supported by AUC.

Assay [7] deals with T7, MLKL (Homo sapiens, UniProt Q8NB16, S358E/T357E).
T7 construct: full-length hMLKL(2–471)
T7 sequence (Q8NB16 2-471 T357E/S358E): T1 sequence (Q8NB16 2-471 D107A/E111A) with A106D, A110E, T356E, S357E
The experiment in a line: thermal shift assay with ATP titration.

Where a chain is given by its changes, count along the chain named.

What is called Kd is the free concentration of one partner at which half of the binding sites on the other are occupied at equilibrium, for simple one-to-one binding. In the case of `Nc1ncnc2c1ncn2[C@@H]1O[C@H](COP(=O)(O)OP(=O)(O)OP(=O)(O)O)[C@@H](O)[C@H]1O` [ATP], the Kd was determined as 23 ± 2 µM at MLKL [1]; 24 ± 2 µM at MLKL [2]; 164 ± 31 µM at MLKL [3]; 28 ± 6 µM on MLKL [4]; 26 ± 6 µM on MLKL [5]; 36 ± 4 µM at MLKL [6]. Besides, the Kd at MLKL [7] worked out at 56 ± 8 µM.

For the origin of these results see publication PMC6013482, “Conformational switching of the pseudokinase domain promotes human MLKL tetramerization and cell death by necroptosis” (Nature Communications, 2018).
